ChEMBL document CHEMBL1201862, “PubChem BioAssay data set” (2004)
Structures can show the parent of a compound that is named as a salt. The source made the active and inactive calls.

Tests used:
[1] = target: Eukaryotic translation initiation factor 4E (Mus musculus, UniProt P63073); experiment: blockers of eIF4G binding by eIF4E – biochemical, TR-FRET, dose response (AID 855); type: functional;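 note: potency for disrupting eIF4E binding to eIF4GI seen as loss of FRET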
Leucine aminopeptidase = target: T1, Leucine aminopeptidase (Plasmodium falciparum 3D7, UniProt Q8IL11); experiment: P. falciparum M17LAP inhibitors, primary screen, biochemical, fluorogenic H-Leu-NHMec substrate, 1536-well (AID 1619); type: functional
T1 sequence (Q8IL11 whole entry): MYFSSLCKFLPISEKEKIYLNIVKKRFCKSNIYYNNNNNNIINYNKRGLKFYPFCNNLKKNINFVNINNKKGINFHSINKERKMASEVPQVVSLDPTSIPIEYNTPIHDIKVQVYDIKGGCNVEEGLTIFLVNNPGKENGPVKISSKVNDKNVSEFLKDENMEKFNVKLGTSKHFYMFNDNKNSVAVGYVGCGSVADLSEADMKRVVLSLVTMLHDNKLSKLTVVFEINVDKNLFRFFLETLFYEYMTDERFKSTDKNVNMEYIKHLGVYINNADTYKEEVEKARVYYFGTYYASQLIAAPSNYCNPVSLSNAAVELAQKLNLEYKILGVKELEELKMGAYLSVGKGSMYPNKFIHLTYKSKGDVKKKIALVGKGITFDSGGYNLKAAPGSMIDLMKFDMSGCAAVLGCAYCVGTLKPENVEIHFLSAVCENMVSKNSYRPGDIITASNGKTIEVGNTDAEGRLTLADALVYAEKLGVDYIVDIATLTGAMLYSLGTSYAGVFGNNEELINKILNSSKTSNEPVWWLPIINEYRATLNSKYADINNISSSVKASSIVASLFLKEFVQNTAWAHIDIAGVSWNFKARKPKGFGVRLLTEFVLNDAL

[2] = HEK-293T cell viability reduction – luminescence, B-cell screen hits, cytotoxicity control for BCR NF-kB inhibitor project, dose response (AID 489021); type: functional, cell-based;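 note: HEK-293T cells carrying an NF-kB luciferase reporter; cells exposed to compound for about 14 hours before viability readout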
[3] = target: Induced myeloid leukemia cell differentiation protein Mcl-1 (Homo sapiens, UniProt Q07820); type: functional
Chain of Induced myeloid leukemia cell differentiation protein Mcl-1 (Q07820 whole entry): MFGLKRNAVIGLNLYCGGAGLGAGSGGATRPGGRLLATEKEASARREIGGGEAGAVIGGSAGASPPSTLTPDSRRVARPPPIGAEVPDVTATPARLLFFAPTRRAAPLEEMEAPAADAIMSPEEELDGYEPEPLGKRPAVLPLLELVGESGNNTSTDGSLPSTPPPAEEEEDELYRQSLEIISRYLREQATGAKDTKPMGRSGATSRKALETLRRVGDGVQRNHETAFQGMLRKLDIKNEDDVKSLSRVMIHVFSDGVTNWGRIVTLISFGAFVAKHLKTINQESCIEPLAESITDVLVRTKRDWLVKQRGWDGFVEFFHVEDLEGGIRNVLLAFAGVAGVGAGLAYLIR

Caspase-6 = target: T2, Caspase-6 (Homo sapiens, UniProt P55212); experiment: inhibition of CASP6 peptide cleavage – biochemical, VEID-R110 fluorescence, cherry-pick, dose response (AID 720632)
T2 sequence (P55212 whole entry): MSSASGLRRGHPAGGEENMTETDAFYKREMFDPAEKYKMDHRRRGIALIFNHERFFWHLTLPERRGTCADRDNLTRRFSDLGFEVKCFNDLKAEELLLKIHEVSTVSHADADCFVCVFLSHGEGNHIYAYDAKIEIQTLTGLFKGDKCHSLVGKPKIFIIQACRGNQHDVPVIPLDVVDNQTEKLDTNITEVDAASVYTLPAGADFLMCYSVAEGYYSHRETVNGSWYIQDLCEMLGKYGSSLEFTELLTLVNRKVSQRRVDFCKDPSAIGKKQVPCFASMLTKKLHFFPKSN

[4] = target: T3, Carboxy-terminal domain RNA polymerase II polypeptide A small phosphatase 1 (Homo sapiens, UniProt Q9GZU7); experiment: CTDSP1 inhibitors, concentration-response, biochemical, absorbance readout, ultra-high-throughput screen actives (AID 540297); type: functional
T3 sequence (Q9GZU7 whole entry): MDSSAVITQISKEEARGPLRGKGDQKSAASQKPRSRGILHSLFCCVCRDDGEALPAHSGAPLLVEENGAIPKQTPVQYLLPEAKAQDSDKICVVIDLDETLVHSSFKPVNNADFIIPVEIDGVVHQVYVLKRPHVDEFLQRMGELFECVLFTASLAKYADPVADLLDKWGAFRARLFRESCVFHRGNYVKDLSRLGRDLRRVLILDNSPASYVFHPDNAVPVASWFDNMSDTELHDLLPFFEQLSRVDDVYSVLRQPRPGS

[5] = A cytotoxicity screen of small molecule inhibitors of the PhoP region in Salmonella typhi identified in the primary screen. [Related pubchem assays: 1850, 1864, 1985 ]; type: functional
Ion channel NompC = Ion channel NompC (Danio rerio, UniProt Q7T1G6); experiment: Fluorescence counterscreen assay for TRPML3 agonists: dose response cell-based high-throughput screening assay to identify agonists of the transient receptor potential channel N1 (TRPN1). [Related pubchem assays: 1526, 1424, 1448 ]; type: functional
Chain of Ion channel NompC (Q7T1G6 whole entry): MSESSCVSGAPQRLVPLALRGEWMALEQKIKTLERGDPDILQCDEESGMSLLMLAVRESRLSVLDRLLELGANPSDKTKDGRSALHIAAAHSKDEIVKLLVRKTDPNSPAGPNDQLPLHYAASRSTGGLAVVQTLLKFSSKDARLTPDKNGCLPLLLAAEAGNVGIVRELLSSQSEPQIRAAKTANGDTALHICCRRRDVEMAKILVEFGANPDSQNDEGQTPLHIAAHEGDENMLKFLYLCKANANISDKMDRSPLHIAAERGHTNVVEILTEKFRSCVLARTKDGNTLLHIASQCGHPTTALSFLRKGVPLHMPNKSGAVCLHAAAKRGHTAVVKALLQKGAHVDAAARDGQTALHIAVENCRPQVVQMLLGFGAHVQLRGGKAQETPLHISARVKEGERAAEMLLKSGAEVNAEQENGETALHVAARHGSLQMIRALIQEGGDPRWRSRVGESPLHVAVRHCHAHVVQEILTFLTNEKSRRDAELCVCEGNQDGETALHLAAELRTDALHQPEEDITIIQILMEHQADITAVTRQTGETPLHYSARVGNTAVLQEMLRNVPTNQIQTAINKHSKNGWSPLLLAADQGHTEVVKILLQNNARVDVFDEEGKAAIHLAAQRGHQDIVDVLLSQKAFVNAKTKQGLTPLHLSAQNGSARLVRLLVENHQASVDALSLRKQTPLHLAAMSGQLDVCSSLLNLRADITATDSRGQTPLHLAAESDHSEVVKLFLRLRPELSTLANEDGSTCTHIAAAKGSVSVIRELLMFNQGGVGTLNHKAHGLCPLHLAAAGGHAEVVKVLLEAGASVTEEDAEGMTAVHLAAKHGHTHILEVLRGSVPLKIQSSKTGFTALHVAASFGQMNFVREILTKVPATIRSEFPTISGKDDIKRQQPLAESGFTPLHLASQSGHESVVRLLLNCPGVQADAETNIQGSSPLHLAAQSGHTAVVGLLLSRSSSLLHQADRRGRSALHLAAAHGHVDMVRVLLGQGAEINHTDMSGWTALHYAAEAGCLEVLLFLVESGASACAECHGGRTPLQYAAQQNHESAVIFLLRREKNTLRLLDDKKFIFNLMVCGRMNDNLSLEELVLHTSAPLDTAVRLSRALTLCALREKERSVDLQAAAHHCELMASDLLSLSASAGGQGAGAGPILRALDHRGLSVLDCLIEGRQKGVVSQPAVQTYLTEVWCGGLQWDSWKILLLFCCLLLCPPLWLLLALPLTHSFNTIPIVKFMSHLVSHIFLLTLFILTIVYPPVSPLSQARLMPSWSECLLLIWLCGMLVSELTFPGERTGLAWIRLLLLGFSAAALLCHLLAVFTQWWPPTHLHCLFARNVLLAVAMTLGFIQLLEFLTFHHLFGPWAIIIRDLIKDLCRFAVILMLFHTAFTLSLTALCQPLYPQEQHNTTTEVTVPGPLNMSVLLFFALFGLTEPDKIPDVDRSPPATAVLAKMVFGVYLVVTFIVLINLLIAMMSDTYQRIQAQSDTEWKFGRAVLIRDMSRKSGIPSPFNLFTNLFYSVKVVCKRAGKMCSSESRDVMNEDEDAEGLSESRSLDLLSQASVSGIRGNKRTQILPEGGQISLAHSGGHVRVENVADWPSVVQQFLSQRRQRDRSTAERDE

Mucolipin-3 = target: T4, Mucolipin-3 (Homo sapiens, UniProt Q8TDD5); experiment: Dose response cell-based high-throughput screening assay for agonists of the transient receptor potential channel ML3 (TRPML3). [Related pubchem assays: 1526, 1424, 1448 ]; type: functional
T4 sequence (Q8TDD5 whole entry): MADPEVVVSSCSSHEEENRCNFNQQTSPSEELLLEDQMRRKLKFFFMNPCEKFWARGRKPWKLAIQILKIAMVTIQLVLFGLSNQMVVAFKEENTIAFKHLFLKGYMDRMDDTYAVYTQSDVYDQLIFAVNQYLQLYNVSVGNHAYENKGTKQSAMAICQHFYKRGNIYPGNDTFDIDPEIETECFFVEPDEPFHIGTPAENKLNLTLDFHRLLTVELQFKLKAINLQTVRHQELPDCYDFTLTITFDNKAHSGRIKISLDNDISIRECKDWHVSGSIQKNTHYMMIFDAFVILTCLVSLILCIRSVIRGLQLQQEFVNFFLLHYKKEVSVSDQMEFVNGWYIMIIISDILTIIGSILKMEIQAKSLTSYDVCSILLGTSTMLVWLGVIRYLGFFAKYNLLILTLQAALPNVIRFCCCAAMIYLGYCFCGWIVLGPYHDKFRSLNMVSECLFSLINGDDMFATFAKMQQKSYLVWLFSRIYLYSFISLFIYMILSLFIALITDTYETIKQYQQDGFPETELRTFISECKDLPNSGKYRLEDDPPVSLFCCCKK

Streptococcus = experiment: GAS UMAA2166 growth inhibition – luminescence, BacTiterGlo, counter-screen for streptokinase expression inhibitor project, dose response (AID 1915); type: functional, organism-based;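 note: potency for reduction of bacterial viability or growth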
Cytochrome P450 2D6 = Cytochrome P450 2D6 (Homo sapiens, UniProt P10635);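 note: CYP2D6 member of a cytochrome P450 panel assay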
Chain of Cytochrome P450 2D6 (P10635 whole entry): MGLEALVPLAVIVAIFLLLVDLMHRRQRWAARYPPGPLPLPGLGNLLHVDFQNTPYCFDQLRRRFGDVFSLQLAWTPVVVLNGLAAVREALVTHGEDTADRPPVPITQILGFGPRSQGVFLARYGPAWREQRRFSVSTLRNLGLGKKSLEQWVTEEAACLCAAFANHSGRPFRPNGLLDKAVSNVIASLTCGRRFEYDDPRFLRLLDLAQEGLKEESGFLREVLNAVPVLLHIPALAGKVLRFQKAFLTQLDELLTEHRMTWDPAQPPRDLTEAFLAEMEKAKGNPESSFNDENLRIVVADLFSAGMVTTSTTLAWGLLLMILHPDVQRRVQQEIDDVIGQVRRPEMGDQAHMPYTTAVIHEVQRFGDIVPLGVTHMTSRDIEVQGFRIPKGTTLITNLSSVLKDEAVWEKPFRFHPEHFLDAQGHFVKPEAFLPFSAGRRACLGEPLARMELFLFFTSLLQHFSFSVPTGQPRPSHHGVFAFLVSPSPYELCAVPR

Streptokinase A = target: T5, Streptokinase A (Streptococcus pyogenes serotype M1, UniProt P10520); experiment: viability-normalized secreted streptokinase activity reduction – plasminogen activation absorbance, OD405, dose response (AID 1914); type: functional, Streptococcus pyogenes M1 GAS;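 note: secreted streptokinase activity via plasminogen activation per viability signal from cell pellet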
T5 sequence (P10520 whole entry): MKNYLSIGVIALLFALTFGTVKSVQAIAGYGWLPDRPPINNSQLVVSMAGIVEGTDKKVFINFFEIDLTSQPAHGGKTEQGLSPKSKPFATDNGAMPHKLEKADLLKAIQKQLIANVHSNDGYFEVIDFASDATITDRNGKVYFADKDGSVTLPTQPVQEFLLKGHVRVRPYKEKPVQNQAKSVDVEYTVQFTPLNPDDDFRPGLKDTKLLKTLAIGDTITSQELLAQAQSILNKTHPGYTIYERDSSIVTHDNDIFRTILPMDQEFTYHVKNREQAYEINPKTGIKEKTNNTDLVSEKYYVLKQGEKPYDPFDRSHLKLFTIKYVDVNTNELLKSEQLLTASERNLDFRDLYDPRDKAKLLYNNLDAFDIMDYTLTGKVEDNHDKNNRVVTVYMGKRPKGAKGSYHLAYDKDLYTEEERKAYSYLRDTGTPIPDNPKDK

[6] = tested on: Streptococcus sp. 'group A'; experiment: Streptococcus pyogenes SK(-)GAS viability under kanamycin – luminescence, BacTiterGlo, confirmation, counter-screen for streptokinase expression inhibitor project, dose response (AID 1900); type: functional, organism-based
[7] = target: T6, Short transient receptor potential channel 4 (Mus musculus, UniProt Q9QUQ5); experiment: calcium entry via TRPC4 opening agents – cell-based, HEK293 TRPC4/mu-opioid, Fluo-4 calcium, dose response (AID 434937); type: functional
T6 sequence (Q9QUQ5 whole entry): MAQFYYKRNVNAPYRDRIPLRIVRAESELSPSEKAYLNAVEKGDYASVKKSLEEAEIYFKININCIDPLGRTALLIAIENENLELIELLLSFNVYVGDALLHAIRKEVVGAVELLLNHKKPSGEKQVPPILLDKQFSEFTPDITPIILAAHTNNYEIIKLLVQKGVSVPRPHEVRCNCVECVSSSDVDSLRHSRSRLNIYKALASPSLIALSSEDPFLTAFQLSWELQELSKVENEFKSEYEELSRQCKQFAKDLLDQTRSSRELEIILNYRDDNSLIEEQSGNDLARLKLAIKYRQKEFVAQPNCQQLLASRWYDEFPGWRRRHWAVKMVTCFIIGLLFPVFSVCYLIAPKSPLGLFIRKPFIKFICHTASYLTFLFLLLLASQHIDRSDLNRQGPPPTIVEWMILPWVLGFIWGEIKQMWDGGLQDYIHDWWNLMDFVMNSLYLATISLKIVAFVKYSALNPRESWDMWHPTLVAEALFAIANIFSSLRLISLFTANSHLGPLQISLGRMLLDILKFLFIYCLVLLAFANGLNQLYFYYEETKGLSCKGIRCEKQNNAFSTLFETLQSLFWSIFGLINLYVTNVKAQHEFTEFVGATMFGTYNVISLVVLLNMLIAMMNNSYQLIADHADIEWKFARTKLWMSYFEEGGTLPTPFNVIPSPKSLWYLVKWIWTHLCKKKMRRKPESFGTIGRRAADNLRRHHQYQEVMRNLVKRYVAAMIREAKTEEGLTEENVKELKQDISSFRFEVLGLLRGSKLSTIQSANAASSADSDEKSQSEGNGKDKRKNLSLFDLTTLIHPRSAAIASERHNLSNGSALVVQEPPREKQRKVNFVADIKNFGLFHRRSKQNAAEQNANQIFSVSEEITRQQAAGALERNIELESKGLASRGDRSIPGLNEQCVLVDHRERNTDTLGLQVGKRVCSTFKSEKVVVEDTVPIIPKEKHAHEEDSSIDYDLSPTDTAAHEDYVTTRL

Chain of Eukaryotic translation initiation factor 4E (P63073 whole entry): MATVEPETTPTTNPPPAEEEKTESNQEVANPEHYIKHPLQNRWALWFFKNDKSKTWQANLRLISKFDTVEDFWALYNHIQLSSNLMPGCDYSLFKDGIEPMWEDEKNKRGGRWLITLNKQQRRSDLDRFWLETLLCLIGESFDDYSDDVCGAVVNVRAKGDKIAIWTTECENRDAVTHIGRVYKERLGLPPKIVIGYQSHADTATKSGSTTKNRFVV

With `CCOC(=O)CSc1nnc(CSc2nc(C)cc(C)n2)n1Cc1ccco1` the IC50 [1] was > 64 µM (inactive).
For `O=C(O)CC12CC3CC(C1)CC(n1ncc(NCc4ccc(F)cc4)c(Cl)c1=O)(C3)C2`, the IC50 (Leucine aminopeptidase) was 54 µM (active).
For `Cc1ccc(S(=O)(=O)NCC(=O)N(CC(=O)NCC2CCCO2)C2CCCC2)cc1` (stereo not given), the IC50 [1] was > 64 µM (inactive).
In the case of `COc1ccc(-n2ncc3c(N4CCC(C(N)=O)CC4)ncnc32)cc1`, the IC50 [2] is reported as > 80 µM (inactive).
For `O=C(CSc1ccsc1[N+](=O)[O-])Nc1cccc(F)c1`, the IC50 [3] was 2.92 µM (active), the AC50 (Caspase-6) was 16.3 µM (active) and the IC50 [1] was 50 µM (inactive). For the same molecule, the IC50 [4] was 3.65 µM (active).
With `O=C(Nc1cccc([N+](=O)[O-])c1)Nc1cccs1` the EC50 [5] was > 50 µM (active).
For `CN(C1CCCCC1)S(=O)(=O)c1cccc(C#N)c1`, the EC50 (Ion channel NompC) was > 29.9 µM (not active) and the EC50 (Mucolipin-3) was 3.58 µM (active).
In the case of `COc1ccc(-c2c/c(=N\CC(=O)O)c3ccccc3o2)cc1.[O-][Cl+3]([O-])([O-])O`, the EC50 [5] is reported as > 50 µM (active).
With `COc1ccc(/C=N/n2c(S)nnc2-c2cccs2)cc1` the EC50 (Streptococcus) was 15.6 µM (active), the AC50 (Cytochrome P450 2D6) was 3.55 µM (inconclusive) and the EC50 (Streptokinase A) was > 150 µM (not active). The EC50 [6] was 7.17 µM (active) and the IC50 [1] was > 64 µM (inactive).
For `COC(=O)C1=CCCN(C)C1` [ARECOLINE HYDROBROMIDE], the EC50 (Ion channel NompC) was > 29.9 µM (not active), the EC50 (Mucolipin-3) was 2.26 µM (active) and the EC50 [7] was 6.68 µM (active).
